Where a name gives a salt, the structure may show the parent alone. Read-outs that look alike come from different tables or passages of the source.
What was measured:
[1] = ambient temperature, no visible precipitation after 2 weeks
Protocol: In each case, the solubility was calculated to refer to pure MGDA, without hydrate water.
In addition, the concentrations of the saturated solutions at ambient temperature in dependence of the ee value of MGDA and depending on the concentration of (B) were determined.

[2] = aqueous solution, room temperature; cited from earlier work

Structure (SMILES) | concentration of saturated solutions ([1]; ee value of MGDA-Na3 11 %, addition of VDA-Na3 5.5 weight-%) [weight-%] | concentration of saturated solutions ([1]; ee value of MGDA-Na3 39 %, addition of VDA-Na3 2.8 weight-%) [weight-%] | concentration of saturated solutions ([1]; ee value of MGDA-Na3 39 %, addition of VDA-Na3 5.5 weight-%) [weight-%] | concentration of saturated solutions ([1]; ee value of MGDA-Na3 39 %, addition of VDA-Na3 8.3 weight-%) [weight-%] | concentration of saturated solutions ([1]; ee value of MGDA-Na3 82 %, addition of VDA-Na3 2.8 weight-%) [weight-%] | concentration of saturated solutions ([1]; ee value of MGDA-Na3 82 %, addition of VDA-Na3 8.3 weight-%) [weight-%] | concentration of saturated solutions ([1]; ee value of MGDA-Na3 82 %, addition of VDA-Na3 zero weight-%) [weight-%] | concentration of saturated solutions ([1]; ee value of MGDA-Na3 96 %, addition of VDA-Na3 5.5 weight-%) [weight-%] | concentration of saturated solutions ([1]; ee value of MGDA-Na3 96 %, addition of VDA-Na3 zero weight-%) [weight-%] | concentration of saturated solutions ([1]; ee value of MGDA-Na3 zero %, addition of VDA-Na3 zero weight-%) [weight-%] | concentration of solutions that can be made and stored [2]
CC(C(=O)O)N(CC(=O)O)CC(=O)O (centres unmarked) [MGDA-Na3, methyl glycine diacetic acid] | 49 | 48 | 47 | 43 | 58 | 53 | 46 | 57 | 49 | ≤40 | 
CC(C(=O)O)N(CC(=O)O)CC(=O)O (racemic) [racemic MGDA trisodium salt, methyl glycine diacetic acid] |  |  |  |  |  |  |  |  |  |  | about 40 % by weight

— patent US10189772B2, “Mixtures of chelating agents including an L-enantiomer-rich MGDA, and process for making such mixtures” (BASF SE, priority 2015, dated 2019)
